According to ChEMBL document CHEMBL2401675, “Design, synthesis, and biological evaluation of novel dipeptide-type SARS-CoV 3CL protease inhibitors: structure-activity relationship study” (Eur J Med Chem, 2013):

What follows are compounds tested against Replicase polyprotein 1a (Severe acute respiratory syndrome-related coronavirus) (UniProt P0C6U8) (assay: Ratio of Kinact to Ki for SARS coronavirus Chymotrypsin-like protease).

Row | SMILES | Ratio
1 | CCOC(=O)C1OC1C(=O)N(CCC(N)=O)NC(=O)[C@@H](CC(=O)[C@H](CC(C)C)NC(=O)OCc1ccccc1)Cc1ccccc1 (some centres not stated) | 1900 M⁻¹ s⁻¹

The compounds below were run against Replicase polyprotein 1a (Severe acute respiratory syndrome-related coronavirus, UniProt P0C6U8) (assay: Inhibition of SARS coronavirus Chymotrypsin-like protease using H-Thr-Ser-Ala-Val-Leu-Gln-Ser-Gly-Phe-Arg-Lys-NH2 as substrate by fluorescence assay).

Row | SMILES | Ki
2 | COc1ccc(CCC(=O)N[C@@H](CC(C)C)C(=O)N[C@@H](C[C@@H]2CCNC2=O)C(=O)c2nc3ccccc3s2)cc1 | 0.61 µM
3 | CC(C)C[C@H](NC(=O)COc1ccc(O)cc1)C(=O)N[C@@H](C[C@@H]1CCNC1=O)C(=O)c1nc2ccccc2s1 | 8.4 µM
4 | CC(C)C[C@H](NC(=O)COc1cccc(N(C)C)c1)C(=O)N[C@@H](C[C@@H]1CCNC1=O)C(=O)c1nc2ccccc2s1 | 0.84 µM
5 | CC(C)C[C@H](NC(=O)/C=C/c1ccccc1)C(=O)N[C@@H](C[C@@H]1CCNC1=O)C(=O)c1nc2ccccc2s1 | 0.69 µM
6 | CC(C)C[C@H](NC(=O)Cc1ccccc1)C(=O)N[C@@H](C[C@@H]1CCNC1=O)C(=O)c1nc2ccccc2s1 | 3.2 µM
7 | COc1ccccc1-c1cnc(C(=O)[C@H](C[C@@H]2CCNC2=O)NC(=O)[C@H](CC(C)C)NC(=O)OCc2ccccc2)s1 | 2.5 µM
8 | COc1ccc(/C=C/C(=O)N[C@@H](CC(C)C)C(=O)N[C@@H](C[C@@H]2CCNC2=O)C(=O)c2nc3ccccc3s2)cc1 | 0.7 µM
9 | CC[C@@H](C)[C@H](NC(=O)OCc1ccccc1)C(=O)N[C@@H](C[C@@H]1CCNC1=O)C(=O)c1nc2ccccc2s1 | 29 µM
10 | CC(C)C[C@H](NC(=O)OC(C)(C)C)C(=O)N[C@@H](C[C@@H]1CCNC1=O)C(=O)c1nc2ccccc2s1 | 23 µM
11 | COc1ccc(-c2cnc(C(=O)[C@H](C[C@@H]3CCNC3=O)NC(=O)[C@H](CC(C)C)NC(=O)OCc3ccccc3)s2)cc1 | 52 µM
12 | Cc1ccc(-c2cnc(C(=O)[C@H](C[C@@H]3CCNC3=O)NC(=O)[C@H](CC(C)C)NC(=O)OCc3ccccc3)s2)cc1 | 37 µM
13 | CC(C)CC(=O)N[C@@H](CC(C)C)C(=O)N[C@@H](C[C@@H]1CCNC1=O)C(=O)c1nc2ccccc2s1 | 5.9 µM
14 | COc1ccc(/C=C/C(=O)N[C@@H](CC(C)C)C(=O)N[C@@H](C[C@@H]2CCNC2=O)C(=O)c2nc3ccccc3s2)cc1OC | 1.3 µM
15 | CC(C)[C@H](NC(=O)OCc1ccccc1)C(=O)N[C@@H](C[C@@H]1CCNC1=O)C(=O)c1nc2ccccc2s1 | 1.71 µM
16 | COc1ccc(OCC(=O)N[C@@H](CC(C)C)C(=O)N[C@@H](C[C@@H]2CCNC2=O)C(=O)c2nc3ccccc3s2)cc1 | 1.56 µM
17 | CC(C)C[C@H](NC(=O)OCc1ccccc1)C(=O)N[C@@H](C[C@@H]1CCNC1=O)C(=O)c1ncc(-c2ccccc2)s1 | 0.66 µM
18 | CC(C)C[C@H](NC(=O)CCc1cccnc1)C(=O)N[C@@H](C[C@@H]1CCNC1=O)C(=O)c1nc2ccccc2s1 | 7.4 µM
19 | CSCC[C@H](NC(=O)OCc1ccccc1)C(=O)N[C@@H](C[C@@H]1CCNC1=O)C(=O)c1nc2ccccc2s1 | 9.4 µM
20 | CCCC[C@H](NC(=O)OCc1ccccc1)C(=O)N[C@@H](C[C@@H]1CCNC1=O)C(=O)c1nc2ccccc2s1 | 1.6 µM
21 | COc1ccc(NCC(=O)N[C@@H](CC(C)C)C(=O)N[C@@H](C[C@@H]2CCNC2=O)C(=O)c2nc3ccccc3s2)cc1 | 3.2 µM
22 | O=C(N[C@@H](Cc1ccccc1)C(=O)N[C@@H](C[C@@H]1CCNC1=O)C(=O)c1nc2ccccc2s1)OCc1ccccc1 | 1.2 µM
